Assay results taken from ChEMBL document CHEMBL3045151, “Long-term pre-exposure of the pest mite Tyrophagus putrescentiae to sub-lethal residues of bifenthrin on rapeseed did not affect its susceptibility to bifenthrin” (2011).
The source made the active and inactive calls. The calls are words filed in the database; no cut-off is given here.

Key:
Tyrophagus putrescentiae [1] = assay: Insecticidal activity against Tyrophagus putrescentiae in compound treated rapeseed assessed as mortality (LD50) after 147 days (reference value: 0.78 ug/cm'2); assay type: functional
Tyrophagus putrescentiae [2] = assay: Insecticidal activity against Tyrophagus putrescentiae in compound treated rapeseed assessed as mortality (LD50) after 84 days (reference value: 0.78 ug/cm'2); assay type: functional
Tyrophagus putrescentiae [3] = assay: Insecticidal activity against Tyrophagus putrescentiae in compound treated rapeseed assessed as mortality (LD95) after 63 days (reference value: 2.4 ug/cm'2); assay type: functional
Tyrophagus putrescentiae [4] = assay: Insecticidal activity against Tyrophagus putrescentiae in compound treated rapeseed assessed as mortality (LD95) after 21 days (reference value: 2.4 ug/cm'2); assay type: functional
Tyrophagus putrescentiae [5] = assay: Insecticidal activity against Tyrophagus putrescentiae in compound treated rapeseed assessed as mortality (LD95) after 42 days (reference value: 2.4 ug/cm'2); assay type: functional
Tyrophagus putrescentiae [6] = assay: Insecticidal activity against Tyrophagus putrescentiae from control origin in compound treated rapeseed assessed as respiration ppm of co2 at sub-lethal concentration at 25 degC, 85% RH measured after 147 days; assay type: functional
Tyrophagus putrescentiae [7] = assay: Insecticidal activity against Tyrophagus putrescentiae in compound treated rapeseed assessed as mortality (LD50) after 21 days (reference value: 0.78 ug/cm'2); assay type: functional
Tyrophagus putrescentiae [8] = assay: Insecticidal activity against Tyrophagus putrescentiae in compound treated rapeseed assessed as mortality (LD95) after 105 days (reference value: 2.4 ug/cm'2); assay type: functional
Tyrophagus putrescentiae [9] = assay: Insecticidal activity against Tyrophagus putrescentiae in compound treated rapeseed assessed as mortality (LD50) after 63 days (reference value: 0.78 ug/cm'2); assay type: functional
Tyrophagus putrescentiae [10] = assay: Insecticidal activity against Tyrophagus putrescentiae in compound treated rapeseed assessed as mortality (LD95) after 126 days (reference value: 2.4 ug/cm'2); assay type: functional
Tyrophagus putrescentiae [11] = assay: Insecticidal activity against Tyrophagus putrescentiae in compound treated rapeseed assessed as mortality after 147 days (reference value: 2.4 ug/cm'2); assay type: functional
Tyrophagus putrescentiae [12] = assay: Insecticidal activity against Tyrophagus putrescentiae in compound treated rapeseed assessed as mortality (LD50) after 105 days (reference value: 0.78 ug/cm'2); assay type: functional
Tyrophagus putrescentiae [13] = assay: Insecticidal activity against Tyrophagus putrescentiae in compound treated rapeseed assessed as mortality (LD50) after 126 days (reference value: 0.78 ug/cm'2); assay type: functional
Tyrophagus putrescentiae [14] = assay: Insecticidal activity against Tyrophagus putrescentiae in compound treated rapeseed assessed as mortality (LD50) after 42 days (reference value: 0.78 ug/cm'2); assay type: functional
Tyrophagus putrescentiae [15] = assay: Insecticidal activity against Tyrophagus putrescentiae from compound treated origin in compound treated rapeseed assessed as increase in population rate at sub-lethal concentration at 25 degC, 85% RH measured after 147 days; assay type: functional, organism-based
Tyrophagus putrescentiae [16] = assay: Insecticidal activity against Tyrophagus putrescentiae in compound treated rapeseed assessed as decrease in population at 0.15 to 150 ug/100 g of rapeseed measured after 21 days; assay type: functional, organism-based
Tyrophagus putrescentiae [17] = assay: Insecticidal activity against Tyrophagus putrescentiae in compound treated rapeseed assessed as mortality (LD95) after 84 days (reference value: 2.4 ug/cm'2); assay type: functional
Tyrophagus putrescentiae [18] = assay: Insecticidal activity against Tyrophagus putrescentiae from control origin in compound treated rapeseed assessed as increase in population rate at sub-lethal concentration at 25 degC, 85% RH measured after 147 days; assay type: functional, organism-based
Tyrophagus putrescentiae [19] = assay: Insecticidal activity against Tyrophagus putrescentiae from compound treated origin in compound treated rapeseed assessed as respiration ppm of co2 per gram of mite fresh weight per hr at sub-lethal concentration at 25 degC, 85% RH measured after 147 days; assay type: functional
Tyrophagus putrescentiae [20] = assay: Insecticidal activity against Tyrophagus putrescentiae in compound treated rapeseed assessed as decrease in population measured after 21 days; assay type: functional

Compound `Cc1c(COC(=O)[C@@H]2[C@H](/C=C(\Cl)C(F)(F)F)C2(C)C)cccc1-c1ccccc1` [BIFENTHRIN] has an LD50 (Tyrophagus putrescentiae [1]) of 0.16 microg/cm2, an LD50 (Tyrophagus putrescentiae [2]) of 0.46 microg/cm2 and an LD95 (Tyrophagus putrescentiae [3]) of 2 microg/cm2. For the same compound, the LD95 (Tyrophagus putrescentiae [4]) was 1.6 microg/cm2, the LD95 (Tyrophagus putrescentiae [5]) was 2.4 microg/cm2 and the Activity (Tyrophagus putrescentiae [6]) was 896 ppm/g/hr. It also gave an LD50 (Tyrophagus putrescentiae [7]) of 0.44 microg/cm2, an LD95 (Tyrophagus putrescentiae [8]) of 2.9 microg/cm2 and an LD50 (Tyrophagus putrescentiae [9]) of 0.24 microg/cm2. The LD95 (Tyrophagus putrescentiae [10]) was 1.6 microg/cm2, the LD95 (Tyrophagus putrescentiae [11]) was 1.8 microg/cm2 and the LD50 (Tyrophagus putrescentiae [12]) was 1.14 microg/cm2. For the same compound, the LD50 (Tyrophagus putrescentiae [13]) was 0.44 microg/cm2, the LD50 (Tyrophagus putrescentiae [14]) was 0.65 microg/cm2 and the Activity (Tyrophagus putrescentiae [15]) was “inactive”. The Activity (Tyrophagus putrescentiae [16]) was “Active”, the LD95 (Tyrophagus putrescentiae [17]) was 2.3 microg/cm2 and the Activity (Tyrophagus putrescentiae [18]) was “inactive”. It also gave an Activity (Tyrophagus putrescentiae [19]) of 745 ppm/g/hr and an ED50 (Tyrophagus putrescentiae [20]) of 2.7 µg.
